Data reported in US8222242B2, “Nitric oxide releasing compounds” (The Regents of the University of California, priority 2008, dated 2012).

System: rabbits
Assay: Tissue hemoglobin and cytochrome c oxidase in rabbit muscle and brain (DOS, continuous wave near-infrared spectroscopy)
Assay type: in vivo
Experimental: NO-Cbi at a dose of 5 μg/kg/min (4.8 nmol/kg/min) was given to a 4 kg rabbit starting at 2 minutes and ending at 11.5 minutes; the drug's effect was monitored by diffuse optical spectroscopy (DOS) over the left thigh muscle. […] All of these changes reversed within 1 minute of stopping the NO-Cbi with a small overshoot in both the oxy- and deoxyhemoglobin concentrations.
NO-Cbi was given to a 3.9 kg rabbit at doses of 6.87, 3.44, and 1.72 μg/kg/min (6.6, 3.3, 1.7 nmol/kg/min), as indicated in the brown rectangular boxes corresponding to drug infusion rates of 1.8, 0.9, and 0.45 ml/min, respectively. Infusion times were for 10 minutes, followed by a 20 minute wash-out period. Oxy-, deoxy- and total hemoglobin concentrations were monitored in the brain by continuous wave near-infrared spectroscopy; changes in hemoglobin concentration are shown as relative units, because continuous wave spectroscopy is not quantitative due to light loss from scattering. As occurred in peripheral muscle (FIG. 7), NO-Cbi caused the deoxyhemoglobin concentration to increase and the oxyhemoglobin concentration to decrease. […] The gradual decrease in total hemoglobin over time was from blood sampling for blood gases and blood hemoglobin content. A dose response effect of NO-Cbi on all three hemoglobin concentration changes can be seen.
Continuous intravenous NO-Cbi infusions were performed in anesthetized rabbits with systemic hemodynamic monitoring, continuous gas exchange analysis, and diffuse optical spectroscopy (DOS) and continuous wave near-infrared spectroscopy monitoring. DOS monitoring was over muscle as a representation of peripheral tissue, and continuous wave spectroscopy was over muscle and brain region. Six animals have been studied to date, varying NO-Cbi infusion rates in each animal between 1.7 and 6.9 μg/kg/min (1.6 and 6.7 nmol/kg/min).

Question: How did the “time for changes to reverse after stopping NO-Cbi” value (5 μg/kg/min, thigh muscle, DOS) turn out when CC1=C2[N+]3=C(C=C4[N+]5=C(C(C)=C6[N]7C(C(CC(N)=O)C6(C)CCC(=O)NCC(C)O)C6(C)[N+](=C1C(CCC(N)=O)C6(C)CC(N)=O)[Co-3]753[N]=O)C(CCC(N)=O)C4(C)C)C(CCC(N)=O)C2(C)CC(N)=O (stereo not shown) [NO-Cbi, nitrosyl cobinamide] was run?
Answer: The value was no more than 1 min.

Question: What about the total tissue hemoglobin (brain) of the same molecule?
Answer: The total tissue hemoglobin was “increased slightly in brain”.

Question: What about the deoxyhemoglobin concentrations (brain and muscle) of the same molecule?
Answer: Its deoxyhemoglobin concentrations is “increased deoxyhemoglobin concentrations”.

Question: And the hemoglobin oxygen saturation (brain and muscle)?
Answer: The hemoglobin oxygen saturation was “decrease in hemoglobin oxygen saturation”.

Question: What about the tissue oxyhemoglobin concentrations (brain and muscle) of the same molecule?
Answer: Its tissue oxyhemoglobin concentrations is “decreased tissue oxyhemoglobin concentrations”.

Question: And the cytochrome redox state (muscle)?
Answer: Its cytochrome redox state is “decreasing the cytochrome redox state”.

Question: And the total tissue hemoglobin (muscle)?
Answer: The total tissue hemoglobin was “decreased slightly in muscle”.
